Results from patent US12384771B2, “Pleuromutilin derivative containing thiazole-pyridine benzyl quaternary ammonium salt side chain and preparation method and use thereof” (SHAANXI UNIVERSITY OF SCIENCE AND TECHNOLOGY, priority 2022, dated 2025).
Where a name gives a salt, the structure may show the parent alone.

How the values were obtained:
Assay type in all cases: cell-based
[1] = system: Mycoplasma hyorhini standard strain BTS-7 strain (Mhr-BTS-7; NCTC 10130); assay: Anti-mycoplasma activity assay, MIC; settings: NCTC10130
Description: (§1) The minimum inhibitory concentration of the pleuromutilin derivative containing thiazole-pyridine benzyl quaternary ammonium salt side chain against different mycoplasmas was tested with tiamulin as (purchased from Shanghai Yuanye Bio-Technology Co., Ltd) a positive control using a microbroth dilution method, and the antibacterial effect of the compound against different mycoplasmas was evaluated.
(§2) Experimental strains include Mycoplasma hyopneumoniae standard strain J strain (Mhp-J; NCTC 10110), Mycoplasma hyopneumoniae clinical isolate LH strain (Mhp-LH), Mycoplasma hyorhini standard strain BTS-7 strain (Mhr-BTS-7; NCTC 10130), Mycoplasma gallisepticum R strain (MG-R) and Mycoplasma synoviae WVU1853 strain (MS-WVU1853; NCTC 10124) (purchased from National Collection of Type Cultures, United Kingdom).
(§3) The specific operation steps are as follows: • (1) preparation of KM2 medium: 38.9 g of KM2 medium (purchased from Guangdong Huankai Microbial Sci. & Tech. Co., Ltd.) was weighed, added to 800 mL of distilled water, boiled and dissolved, and autoclaved at 115° C. for 20 min for later use. • (2) preparation of bacterial liquid stock: 0.5 mL of each of Mycoplasma hyopneumoniae (Mhp), Mycoplasma hyorhina (Mhr), Mycoplasma gallisepticum (MG) and Mycoplasma synoviae (MS) was taken and transferred to 4.5 mL of KM2 liquid medium, and when the colour of the medium turned yellow, each of the bacteria was sub-packaged at 0.5 mL per tube, and stored as the bacterial liquid at −70° C. • (3) determination of bacterial liquid titre (colour change unit, CCU): 96-well plate method was used to measure the bacterial liquid titre. The preserved bacterial liquid stock was taken from −70° C., melt and equilibrated to room temperature. 0.18 mL of KM2 medium was added to each well of the middle 4 rows of the 96-well plate (that is, 4 parallels), 0.02 mL of the bacterial liquid stock was taken and added to the wells of the first column, respectively, and subjected to 10-fold dilution until 10^−11. A negative control containing only KM2 medium was set (column 12). The plate was sealed and put into an incubator at 37° C., and the results were observed day by day. The highest dilution at which the colour of the medium can change was the CCU/mL of the strain. • (4) determination of MIC: the minimum inhibitory concentration of the compound against mycoplasmas was determined by a microbroth dilution method. Each drug to be tested was prepared as a stock solution with a concentration of 2560 μg/mL, and each drug stock solution was 2-fold diluted with KM2 liquid medium, and the test concentration range was 0.015-128 μg/mL (large concentration gradient) and 0.000004-0.06 μg/mL (small concentration gradient). An appropriate amount of seed bacterial liquid was taken and diluted to 10^4 CCU/mL serially according to its titre. Drugs of various dilutions were added sequentially to the 96-well plate, and then an equal amount of diluted bacterial liquid was added. 200 μL of diluted mycoplasma liquid was set as a positive control, 200 μL of KM2 liquid culture medium was set as a negative control, and a solvent control group (10 μL of drug solvent+190 μL of mycoplasma liquid) was also set. Three parallels were set for each experiment. After all the culture plates were sealed, they were allowed to culture at 37° C. and observed daily, and the final MIC values were recorded. (See FIG. 22 for the MIC determination results of the representative compound 7 against 5 mycoplasma strains)

[2] = system: Mycoplasma gallisepticum R strain (MG-R); assay: Anti-mycoplasma activity assay, MIC; settings: Mycoplasmoides gallisepticum
Description: as §1, §2, §3

[3] = system: Mycoplasma hyopneumoniae standard strain J strain (Mhp-J; NCTC 10110); assay: Anti-mycoplasma activity assay, MIC; settings: Mesomycoplasma hyopneumoniae, NCTC10110
Description: as §1, §2, §3

[4] = system: Mycoplasma synoviae WVU1853 strain (MS-WVU1853; NCTC 10124); assay: Anti-mycoplasma activity assay, MIC; settings: Mycoplasmopsis synoviae, NCTC10124
Description: as §1, §2, §3

[5] = system: Mycoplasma hyopneumoniae clinical isolate LH strain (Mhp-LH); assay: Anti-mycoplasma activity assay, MIC; settings: Mesomycoplasma hyopneumoniae
Description: as §1, §2, §3

[6] = system: carbapenem-resistant Acinetobacter baumannii (CR-AB) 18-882; assay: MIC, clinical drug-resistant bacteria; settings: CR-AB 18-882, read-out: Minimum inhibitory concentration against clinical drug-resistant bacteria
Description: (§4) The minimum inhibitory concentration (MIC) of the pleuromutilin derivative containing thiazole-pyridine benzyl quaternary ammonium salt side chain was tested with moxifloxacin as a positive control (purchased from Shanghai Macklin Biochemical Technology Co., Ltd.) using a microbroth dilution method. At the same time, the pleuromutilin derivative containing thiazole-pyridine benzyl quaternary ammonium salt side chain of the invention was compared with the marketed pleuromutilin antibiotics, such as retapamulin (purchased from Nanjing Chemlin Chemical Industry Co., Ltd.), tiamulin (purchased from Shanghai Yuanye Bio-Technology Co., Ltd) and valnemulin (purchased from Shanghai Acmec Biochemical Co., Ltd), in order to screen out pleuromutilin derivatives with better activity.
(§5) Clinical resistant bacteria include multidrug-resistant Pseudomonas aeruginosa (MDR-PA) 18-993, 18-756 and 18-126, multidrug-resistant Klebsiella pneumoniae (MDR-KP) 18-893, 18-754 and 18-1482, methicillin-resistant Staphylococcus aureus (MRSA) 18-171, 18-209 and 18-575, vancomycin-resistant Enterococcus faecalis (VRE) 18-94, 18-80 and 18-507, and carbapenem-resistant Acinetobacter baumannii (CR-AB) 18-184, 18-560 and 18-882, all the clinical drug-resistant strains were from Huashan Hospital, Fudan University.

[7] = system: carbapenem-resistant Acinetobacter baumannii (CR-AB) 18-184; assay: MIC, clinical drug-resistant bacteria; settings: CR-AB 18-184, read-out: Minimum inhibitory concentration against clinical drug-resistant bacteria
Description: as §4, §5

[8] = system: multidrug-resistant Klebsiella pneumoniae (MDR-KP) 18-754; assay: MIC, clinical drug-resistant bacteria; settings: MDR-KP 18-754, read-out: Minimum inhibitory concentration against clinical drug-resistant bacteria
Description: as §4, §5

[9] = system: multidrug-resistant Klebsiella pneumoniae (MDR-KP) 18-1482; assay: MIC, clinical drug-resistant bacteria; settings: MDR-KP 18-1482, read-out: Minimum inhibitory concentration against clinical drug-resistant bacteria
Description: as §4, §5

MIC [1]: 0.008 µg/mL
MIC [2]: 0.004 µg/mL
MIC [3]: 0.004 µg/mL
MIC [4]: 0.015 µg/mL
MIC [5]: 0.002 µg/mL
MIC [6]: 16 µg/mL
MIC [7]: 32 µg/mL
MIC [8]: 16 µg/mL
MIC [9]: 16 µg/mL
Structure (SMILES): C=C[C@]1(C)C[C@@H](OC(=O)CSc2nc(-c3cc[n+](Cc4ccc([N+](=O)[O-])cc4)cc3)cs2)[C@]2(C)[C@H](C)CC[C@]3(CCC(=O)[C@H]32)[C@@H](C)[C@@H]1O [Compound 7, 1-(4-(nitro)benzyl)-4-(2-(8-hydroxy-4,7,9,12-tetramethyl-3-oxo-7-vinyldecahydro-4,9a-propancyclopent[8]cyclen-5-yl)oxy)-2-oxoethyl)thiazol-4-yl)pyridyl bromide salt]
